Active and inactive are the calls of the source.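 The calls were made as follows: active = mean IC50 for reducing PEG3 promoter reporter signal at or below a set limit, with IC50 above the limit in both counter screens; inactive = the rest, including counter screen hits.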
Columns and labels:
[1] = system: Rat fibroblasts (CREF); assay: Peg3 promoter luciferase inhibitors, potency, dose response, cell-based, HeLa, CREF/GAPDH counter-screen panel (AID 624167); details: CREF/GAPDH counter-screens
[2] = as above; details: CREF/GAPDH counter-screens; GAPDH; mean of runs
[3] = biological target: PEG-3 (UniProt Q6IN02); assay: as above; details: HeLa PEG-Prom luciferase reporter, overnight, CREF/GAPDH counter-screens, mean of runs
Sequence of PEG-3 (UniProt Q6IN02) (Q6IN02 whole entry, looked up): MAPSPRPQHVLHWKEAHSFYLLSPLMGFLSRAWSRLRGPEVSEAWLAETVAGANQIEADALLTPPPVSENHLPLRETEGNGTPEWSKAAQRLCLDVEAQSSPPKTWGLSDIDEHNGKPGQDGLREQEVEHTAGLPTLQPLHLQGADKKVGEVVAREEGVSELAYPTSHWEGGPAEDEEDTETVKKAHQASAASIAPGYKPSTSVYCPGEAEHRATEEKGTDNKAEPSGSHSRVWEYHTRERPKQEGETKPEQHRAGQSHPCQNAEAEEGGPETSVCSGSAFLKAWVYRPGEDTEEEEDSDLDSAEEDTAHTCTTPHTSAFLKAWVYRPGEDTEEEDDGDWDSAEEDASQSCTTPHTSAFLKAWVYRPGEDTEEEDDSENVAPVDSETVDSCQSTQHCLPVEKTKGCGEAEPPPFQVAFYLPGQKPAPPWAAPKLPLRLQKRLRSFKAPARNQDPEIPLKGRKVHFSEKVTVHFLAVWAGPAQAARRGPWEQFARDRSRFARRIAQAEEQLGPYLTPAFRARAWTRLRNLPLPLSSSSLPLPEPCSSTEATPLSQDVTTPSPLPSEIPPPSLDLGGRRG

[4] = system: PEG-3; assay: as above; details: HeLa PEG-Prom luciferase reporter, overnight, CREF/GAPDH counter-screens
[5] = system: GAPDH; assay: as above; details: CREF/GAPDH counter-screens
[6] = run 1, dose range 1, individual replicate IC50 per panel
[7] = run 2, dose range 1, individual replicate IC50 per panel

| SMILES | IC50 ([1]; mean of runs) | IC50 [1, 6] [µM] | IC50 [1, 7] [µM] | IC50 [2] | IC50 [3] | IC50 [4, 6] [µM] | IC50 [4, 7] [µM] | IC50 [5, 6] [µM] | IC50 [5, 7] [µM] |
| --- | --- | --- | --- | --- | --- | --- | --- | --- | --- |
| COc1cccc2c1C(=O)c1c(O)c3c(c(O)c1C2=O)CC(O)(C(C)=NNC(=O)c1ccc(Cl)c(Cl)c1)CC3OC1CC(N)C(O)C(C)O1 (centres undefined) | 0.588 µM | 0.717 | 0.46 | 7.16 µM | 0.954 µM | 1.43 | 0.476 | 3.35 | 11 |
| NS(=O)(=O)c1ccc(CCNc2nn3c(-c4ccc(F)c(Cl)c4)cnc3s2)cc1 | > 100 µM (inactive) | > 100 | > 100 | 14.1 µM | 2.67 µM | 2.86 | 2.47 | 12.9 | 15.3 |
| CCC(C)Cn1c(O)cc2nn(-c3nc4ccccc4s3)c(=O)c-2c1C (centres undefined) | 65.6 µM (inactive) | 72.2 | 58.9 | 2.79 µM | 3 µM | 5.8 | < 0.2 | 3.06 | 2.52 |
| C/C(=N\NC(=O)c1cc(C2CC2)nc2ccccc12)c1ccc(O)cc1O | 60.7 µM (inactive) | 21.5 | > 100 | > 100 µM (inactive) | 3.26 µM | 3.07 | 3.45 | > 100 | > 100 |
| CCC(c1nnnn1-c1ccc2c(c1)OCCO2)N1CCC(n2c(=O)[nH]c3ccccc32)CC1 (centres undefined) | > 100 µM (inactive) | > 100 | > 100 | 10.8 µM | 7.33 µM | 4.46 | 10.2 | 9.08 | 12.6 |
| COc1ccc(/C=C2/CCCC(CN(C)C)C2=O)cc1 (centres undefined) | 28.8 µM | 23.6 | 34 | inactive | 9.68 µM | 11.3 | 8.07 | 38.2 | 23.9 |
| O=C(N/N=C/c1cc([N+](=O)[O-])ccc1O)c1ccc(COc2ccc3c(c2)CCC3)o1 | 76.8 µM (inactive) | > 100 | 53.7 | > 100 µM (inactive) | 9.2 µM | 7.48 | 10.9 | > 100 | > 100 |
| Cc1ccc(C)c(S(=O)(=O)N2CCN(c3ncnc4sccc34)CC2)c1 | 58.7 µM (inactive) | > 100 | 17.4 | 28.7 µM | 2.53 µM | 2.58 | 2.47 | 9.4 | 48 |
| Cc1ccc(/C=C2\SC(=S)N(CCCC(=O)Nc3ccccn3)C2=O)cc1 | > 100 µM (inactive) | > 100 | > 100 | 12.8 µM | 1.9 µM | 1.33 | 2.48 | 17.7 | 7.78 |
| CN(C)S(=O)(=O)c1ccc(-c2csc(N/N=C/c3ccc(O)cc3)n2)cc1 | 9.81 µM | 9.26 | 10.4 | 12.1 µM | 8.22 µM | 8.68 | 7.77 | 11.7 | 12.5 |
| Oc1[nH]c2ccc(Br)cc2c1N=NC(=S)N1CCOCC1 | 50.3 µM (inactive) | > 100 | 0.611 | 13.8 µM | 1.07 µM | 1.25 | 0.885 | 18.8 | 8.78 |
| CCC(c1ccc(O)c(O)c1)C(CC)c1ccc(O)c(O)c1 (centres undefined) | 19.9 µM | 23 | 16.7 | inactive | 9.94 µM | 14.2 | 5.63 | 35.6 | 33.7 |
| Cc1ccc(OCC(=O)c2cc(C)n(Cc3ccco3)c2C)c([N+](=O)[O-])n1 | > 100 µM (inactive) | > 100 | > 100 | 13 µM | 6.81 µM | 6.5 | 7.13 | 7.31 | 18.7 |
| CC1CC(C)C(=O)C(C(CC2CC(=O)NC(=O)C2)OC(=O)CC(=O)c2ccccc2)C1 (centres undefined) | > 100 µM (inactive) | > 100 | > 100 | 1.01 µM | 1.16 µM | 1.78 | 0.549 | 0.605 | 1.42 |
| COc1ccc(NC(=O)c2cc(-c3ccccn3)nc3ccccc23)cc1S(=O)(=O)N(C)C | > 100 µM (inactive) | > 100 | > 100 | inactive | 0.724 µM | 1.12 | 0.329 | > 100 | 43.6 |
| COc1cccc(/C=N/NC(=O)c2c(C)nc3ccc(Cl)cn23)c1O | 69.6 µM (inactive) | > 100 | 39.3 | > 100 µM (inactive) | 0.754 µM | 0.994 | 0.513 | > 100 | > 100 |

| SMILES | IC50 ([1]; mean of runs) | IC50 [1, 6] [µM] | IC50 [1, 7] [µM] | IC50 [2] | IC50 [3] | IC50 [4, 6] [µM] | IC50 [4, 7] [µM] | IC50 [5, 6] [µM] | IC50 [5, 7] [µM] |
| --- | --- | --- | --- | --- | --- | --- | --- | --- | --- |
| COc1cc(OC)c2cc(C(=O)N/N=C/c3ccccc3O)[nH]c2c1 | 28.8 µM | 24.8 | 32.9 | inactive | 4.44 µM | 4.95 | 3.93 | 75.1 | 51.5 |
| CCCC(=O)NC(c1ccc(C)cc1)c1ccc2cccnc2c1O (centres undefined) | > 100 µM (inactive) | > 100 | > 100 | inactive | 5.94 µM | 4.69 | 7.19 | > 100 | 74.7 |
| CN(C)c1c([N+](=O)[O-])cc(N2C(=O)C=CC2=O)cc1[N+](=O)[O-] | 14 µM | 10.7 | 17.3 | 23.6 µM | 6.53 µM | 7.49 | 5.58 | 24.6 | 22.7 |
| O=c1c2ccccc2sc2nc(CCl)nn12 | > 100 µM (inactive) | > 100 | > 100 | 11.2 µM | 9.36 µM | 9.23 | 9.49 | 11.9 | 10.6 |
| CC(=O)NC(c1ccc(Cl)cc1Cl)c1ccc2cccnc2c1O (centres undefined) | > 100 µM (inactive) | > 100 | > 100 | inactive | 1.77 µM | 0.852 | 2.68 | 31.5 | 61.9 |
| O=C(Nc1ccccc1C(=O)Nc1nnc(C(F)(F)F)s1)c1ccccc1 | > 100 µM (inactive) | > 100 | > 100 | 7.97 µM | inactive | 7.01 | > 100 | 2.28 | 13.7 |
| CCOc1cccc(/C=N/NC(=S)Nc2cc(S(=O)(=O)N3CCOCC3)ccc2N2CCOCC2)c1O | 72.8 µM (inactive) | > 100 | 72.8 | > 100 µM (inactive) | 17.3 µM | 9.08 | 25.5 | > 100 | > 100 |
| COc1ccc(C(NC(C)=O)c2ccc3cccnc3c2O)c(OC)c1 (centres undefined) | 51.8 µM (inactive) | 3.55 | > 100 | > 100 µM (inactive) | 5.33 µM | 3.68 | 6.97 | > 100 | > 100 |
| CS(=O)(=O)c1ccc(-c2cn3cc(C(=O)O)ccc3n2)cc1 | 42.9 µM | 42.3 | 43.4 | 27.6 µM | 10.2 µM | 6.91 | 13.4 | 24.6 | 30.5 |
| C=CCn1c(C)cc(C(=O)COc2ccc(C)nc2[N+](=O)[O-])c1C | > 100 µM (inactive) | > 100 | > 100 | 24 µM | 1.4 µM | 1.55 | 1.26 | 8.8 | 39.1 |
| O=C(CCSc1nc2ccccc2s1)N/N=C/c1c(O)ccc2ccccc12 | > 100 µM (inactive) | > 100 | > 100 | > 100 µM (inactive) | 4.29 µM | 5.86 | 2.71 | > 100 | > 100 |
| CC1=CC2/C=C(\C)CCC(O)C(O)/C=C/C(=O)C23C(=O)NC(CC(C)C)C3C1C (centres undefined) | 14.3 µM | 20.1 | 8.55 | 7.88 µM | 4.78 µM | 5.76 | 3.79 | 9.17 | 6.59 |
| CC(=O)c1sc2c(c1OC(=O)c1ccc(Cl)cc1Cl)c(=O)n(-c1ccccc1)c(=S)n2-c1ccccc1 | > 100 µM (inactive) | > 100 | > 100 | 4.7 µM | 10.2 µM | 11.2 | 9.26 | 2.85 | 6.56 |
| COc1cccc(OC)c1C(=O)Nc1cc(C)nn1-c1nc2ccccc2[nH]1 | > 100 µM (inactive) | > 100 | > 100 | > 100 µM (inactive) | 3.1 µM | 2.08 | 4.13 | > 100 | > 100 |
| O=C(O)c1ccc(CN2C(=O)c3cccc4c([N+](=O)[O-])ccc(c34)C2=O)cc1 | 31.5 µM | 29.5 | 33.4 | 22.7 µM | 10.1 µM | 12.1 | 8.2 | 21.9 | 23.4 |

Reference: PubChem BioAssay AID624167 (Sanford-Burnham Center for Chemical Genomics, 2012)
